Experimental data from US9855320B2, “Angiogenin for treatment of glaucoma” (CHUNG-ANG UNIVERSITY INDUSTRY-ACADEMIC COOPERATION …, priority 2011, dated 2018).

Columns and labels:
normal white rat = assay: Intraocular pressure change due to instillation in normal white rats (day-time and night-time); type: in vivo
Procedure: (§1) White rats were grouped as a physiological saline solution instillation group, an angiogenin (recombinant human angiogenin, R&D systems, USA) 50 μg/ml instillation group, an angiogenin fragment (angiogenin 108-122, SEQ ID NO: 1, BACHEM, USA) instillation group, and a latanoprost 50 μg/ml instillation group, and each group consisted of 6 rats, that is, 12 eyes. Instillation test was repeatedly performed on normal rats and glaucoma model rats. Ophthalmic agent was administered at 8 AM and 8 PM in an amount of 4 μl to compare day-time effects and night-time effects, and 1, 3, 6, 9, 12, and 24 hours after the instillation, intraocular pressure was measured.

[1] = tested on: nitric oxide (NO) concentration in aqueous humor; assay: NO concentration in aqueous humor after instillation (Griess assay); type: in vivo, rat; settings: 50 μg/ml, rank among instillation groups
Procedure: Normal rat models were divided into 4 groups, each group consisting of 6 rats, that is, 12 eyes, and at 8 AM and 8 PM, each group was instilled with angiogenin 50 μg/ml, angiogenin fragment 50 μg/ml, and latanoprost 50 μg/ml, and 1, 3, and 6 hours after instillation, 15 to 20 μl of aqueous humor was extracted from two rats, that is, 4 eyes for each group. For the extraction of aqueous humor, first, rats were anesthetized, and then, corneal dissection was performed in a direction from at 9 o'clock outside each eye toward microkeratome, and then, a capillary tube was brought into contact through a dissection wound to absorb aqueous humor, which was then moved to an eppendroff tube and frozen-preserved at a temperature of −70 degrees. Thereafter, nitric oxide (NO) concentration in aqueous humor was measured by Griess assay (nitric oxide colorimetric assay kit, Biovision, USA). The aqueous humor was diluted 10 times and then mixed with the same amount of griess solution and reacted together for 10 minutes. The reaction product was moved onto a well plate and then, absorbance of nitrate, which is a NO formation reactant, was measured by using spectrophotometer at a wavelength of 540 nm and compared with a reference value to quantify the nitrate.

angiogenin = assay: Angiogenin concentration change in human tear after Latanoprost instillation (ELISA array); type: in vivo
Procedure: Angiogenin concentration change in tears due to long-, short-term instillation of […] Latanoprost (Xalatan; Pfizer Inc., New York, N.Y., USA) was assayed by using ELISA kit (Custom Cytokine Human Antibody Array, RayBiotech). Short-term tear component change assay was performed as follows: 12 people, that is, 24 eyes were instilled with […] Latanoprost and then, angiogenin concentration in tear was qualitatively assayed before instillation and 6 hours after instillation. Long-term tear component change assay was performed as follows: 10 people, that is, 20 eyes, who were newly diagnosed with glaucoma were instilled with […] Latanoprost instillation for two months once a day, and then, angiogenin concentration in tear was analyzed before and after instillation. […] After washing, the result was reacted in a detection buffer solution provided by the manufacturer for 2 minutes, and then, the membrane was exposed to an X-ray film for 40 seconds, and an image thereof was obtained by using Quantity one software(Bio-Rad Lab., Hercules, Calif., USA), and chemiluminescent assay was performed thereon for qualitativeness.

glaucoma white rats = assay: Intraocular pressure change due to instillation in glaucoma white rats (day-time and night-time); type: in vivo, rat; settings: day-time test and night-time test
Procedure: Male white rats were used to prepare an episcleral venous ablation glaucoma model. The rat was anesthetized and a limbus periphery was divided into four portions, each of which was then subjected to 2 mm dissection at an interval of 90 degrees, and then, two radial conjunctival excisions were performed on upper dissection periphery. […] Episcleral vein is distinguishable because it is located […] than extra ocular muscle, has relatively low fluidity and a relatively large diameter, contains darker blood in vessel, and is connected to peripheral venous plexus. After surgical isolation of vein, the vein was lifted up by using 3 mm-width wooden spatula to be spaced apart from the peripheral tissue, and then, was subjected to electric ablation while being careful for the peripheral tissue not to have any thermal injury or any mechanical injury due to the contact. After the operation, a chloramphenical ophthalmic agent was administered thereto. Intraocular pressure was consecutively measured three or more times by using Tonopen (Solan, Fla., USA), and only reliable intraocular pressure values within 5% or less were recorded. Only used were rats that had higher intraocular pressure than that before the operation by 5 mmHg or more when measured on the first day, the third day, one week and two weeks before and after operation.
Also, steroid-induced glaucoma model was prepared as follows: 1% prednisolone was instilled twice a day in an amount of 4 μl for 30 days, and only rats that had higher intraocular pressure by 5 mmHg or more before operation were used.
as §1

CC(C)OC(=O)CCC/C=C\C[C@@H]1[C@@H](CC[C@@H](O)CCc2ccccc2)[C@H](O)C[C@@H]1O [latanoprost, reference compound]
time after instillation up to which significant intraocular pressure reduction was maintained (normal white rat; day-time instillation): up to 12 hours
intraocular pressure reduction (normal white rat; day-time instillation, 50 μg/ml, 3 hours after the instillation): −2.8±0.4 mmHg
NO concentration increase in aqueous humor ([1]; 3 hours after instillation): greatest NO concentration increase
expression of angiogenin in tear (angiogenin; human, short-term, 6 hours after instillation of 0.0005% Latanoprost, before instillation 42.2±9.1%): 62.5±10.2%
long-term angiogenin concentration in tear (angiogenin; newly diagnosed glaucoma patients, after two months of instillation once a day, 0.0005% Latanoprost, before instillation 60.5±10.8%): 81.2±11.5%

angiogenin fragment: C-terminal fragment of angiogenin, angiogenin 108-122, SEQ ID NO: 1 (BACHEM) (ENGLPVHLDQSIFRR; listed as Homo sapiens)
time after instillation up to which significant intraocular pressure reduction was maintained (normal white rat; day-time instillation): up to 6 hours
average intraocular pressure reduction (normal white rat; day-time instillation, one hour after instillation): −2.9±0.4 mmHg
time after instillation up to which significant intraocular pressure reduction was maintained (normal white rat; night-time instillation): up to 12 hours
intraocular pressure reduction (normal white rat; night-time instillation, 1 hour after the instillation): −3.4±0.6 mmHg
NO concentration increase in aqueous humor ([1]; 1 hour after the initial instillation, day-time and night-time test): ranked the second
course of intraocular pressure reduction effects after the first hour (in words) (glaucoma white rats; later than one hour after instillation): rapidly diminished at the highest speed from among all of the groups
intraocular pressure reduction effects (in words) (glaucoma white rats; one hour after instillation): excellent intraocular pressure reduction effects
